Results as given in ChEMBL document CHEMBL1201862, “PubChem BioAssay data set” (2004).
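Step 1: Grow cells in 96-well plates. Step 2: Expose to compound for 48 hours at 5 concentrations. Step 3: Interpolate endpoints linearly; if unreached, use highest concentration. GI50 is the concentration that inhibits growth by half.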 The source made the active and inactive calls. Rule as the data show it: active = GI50 up to about 1.1 µM and inactive = higher.

What was measured:
Experiment in all cases: DTP human tumour cell line panel, 48 h
DU-145 = tested on: DU-145
SN12C = tested on: SN12C
SK-MEL-2 = tested on: SK-MEL-2
SK-MEL-5 = tested on: SK-MEL-5
PC-3 = tested on: PC-3
NCI-H522 = tested on: NCI-H522
ACHN = tested on: ACHN
KM12 = tested on: KM12
SK-OV-3 = tested on: SK-OV-3
786-0 = tested on: 786-0
UACC-257 = tested on: UACC-257
Hs-578T = tested on: Hs-578T
NCI-H460 = tested on: NCI-H460
CCRF-CEM = tested on: CCRF-CEM
UO-31 = tested on: UO-31
A549 = tested on: A549
SK-MEL-28 = tested on: SK-MEL-28
COLO 205 = tested on: COLO 205
OVCAR-4 = tested on: OVCAR-4
HCC 2998 = tested on: HCC 2998
RPMI-8226 = tested on: RPMI-8226
HCT-116 = tested on: HCT-116
SF-295 = tested on: SF-295
MDA-MB-435 = tested on: MDA-MB-435
HOP-62 = tested on: HOP-62
A498 = tested on: A498
CAKI-1 = tested on: CAKI-1
UACC-62 = tested on: UACC-62
K562 = tested on: K562
BT-549 = tested on: BT-549
MDA-MB-231 = tested on: MDA-MB-231
OVCAR-8 = tested on: OVCAR-8
NCI/ADR-RES = tested on: NCI/ADR-RES
SF-539 = tested on: SF-539
U-251 = tested on: U-251
MOLT-4 = tested on: MOLT-4
HOP-92 = tested on: HOP-92
HL-60 = tested on: HL-60
MCF7 = tested on: MCF7
HCT-15 = tested on: HCT-15
SNB-19 = tested on: SNB-19
M14 = tested on: M14
NCI-H23 = tested on: NCI-H23
NCI-H226 = tested on: NCI-H226
T47D = tested on: T47D
OVCAR-3 = tested on: OVCAR-3
SF-268 = tested on: SF-268
Malme-3M = tested on: Malme-3M
MDA-N = tested on: MDA-N
OVCAR-5 = tested on: OVCAR-5
HT-29 = tested on: HT-29
RXF 393 = tested on: RXF 393
TK-10 = tested on: TK-10
IGROV-1 = tested on: IGROV-1
EKVX = tested on: EKVX
LOX IMVI = tested on: LOX IMVI
SNB-75 = tested on: SNB-75
SW-620 = tested on: SW-620

Structure (SMILES): Cc1cc(S(=O)(=O)[N-]C(=C(C#N)C#N)[n+]2ccc(N(C)C)cc2)c(SCC(=O)O)cc1Cl
- GI50 (DU-145): > 100 µM (inactive)
- GI50 (SN12C): > 100 µM (inactive)
- GI50 (SK-MEL-2): > 100 µM (inactive)
- GI50 (SK-MEL-5): > 100 µM (inactive)
- GI50 (PC-3): > 100 µM (inactive)
- GI50 (NCI-H522): 45.8 µM (inactive)
- GI50 (ACHN): > 100 µM (inactive)
- GI50 (KM12): > 100 µM (inactive)
- GI50 (SK-OV-3): > 100 µM (inactive)
- GI50 (786-0): > 100 µM (inactive)
- GI50 (UACC-257): > 100 µM (inactive)
- GI50 (Hs-578T): > 100 µM (inactive)
- GI50 (NCI-H460): > 100 µM (inactive)
- GI50 (CCRF-CEM): > 100 µM (inactive)
- GI50 (UO-31): > 100 µM (inactive)
- GI50 (A549): > 100 µM (inactive)
- GI50 (SK-MEL-28): > 100 µM (inactive)
- GI50 (COLO 205): > 100 µM (inactive)
- GI50 (OVCAR-4): > 100 µM (inactive)
- GI50 (HCC 2998): > 100 µM (inactive)
- GI50 (RPMI-8226): > 100 µM (inactive)
- GI50 (HCT-116): > 100 µM (inactive)
- GI50 (SF-295): > 100 µM (inactive)
- GI50 (MDA-MB-435): > 100 µM (inactive)
- GI50 (HOP-62): > 100 µM (inactive)
- GI50 (A498): > 100 µM (inactive)
- GI50 (CAKI-1): > 100 µM (inactive)
- GI50 (UACC-62): > 100 µM (inactive)
- GI50 (K562): > 100 µM (inactive)
- GI50 (BT-549): > 100 µM (inactive)
- GI50 (MDA-MB-231): > 100 µM (inactive)
- GI50 (OVCAR-8): > 100 µM (inactive)
- GI50 (NCI/ADR-RES): > 100 µM (inactive)
- GI50 (SF-539): > 100 µM (inactive)
- GI50 (U-251): > 100 µM (inactive)
- GI50 (MOLT-4): > 100 µM (inactive)
- GI50 (HOP-92): 10 µM (inactive)
- GI50 (HL-60): > 100 µM (inactive)
- GI50 (MCF7): > 100 µM (inactive)
- GI50 (HCT-15): > 100 µM
- GI50 (SNB-19): > 100 µM (inactive)
- GI50 (M14): > 100 µM (inactive)
- GI50 (NCI-H23): > 100 µM (inactive)
- GI50 (NCI-H226): > 100 µM (inactive)
- GI50 (T47D): > 100 µM (inactive)
- GI50 (OVCAR-3): > 100 µM (inactive)
- GI50 (SF-268): > 100 µM (inactive)
- GI50 (Malme-3M): 22.6 µM (inactive)
- GI50 (MDA-N): > 100 µM (inactive)
- GI50 (OVCAR-5): > 100 µM (inactive)
- GI50 (HT-29): > 100 µM (inactive)
- GI50 (RXF 393): > 100 µM (inactive)
- GI50 (TK-10): > 100 µM (inactive)
- GI50 (IGROV-1): > 100 µM (inactive)
- GI50 (EKVX): > 100 µM (inactive)

Structure (SMILES): O=C(/C=C1\N=C(c2ccccc2)N(c2nc3c(Cl)cc(Cl)cc3s2)C1=O)/C=C/c1ccccc1
- GI50 (LOX IMVI): > 100 µM (inactive)
- GI50 (DU-145): > 100 µM (inactive)
- GI50 (SN12C): > 100 µM (inactive)
- GI50 (SK-MEL-2): > 100 µM (inactive)
- GI50 (SNB-75): 36.5 µM (inactive)
- GI50 (SK-MEL-5): 56.4 µM (inactive)
- GI50 (PC-3): 69.3 µM (inactive)
- GI50 (NCI-H522): 45.1 µM (inactive)
- GI50 (ACHN): > 100 µM (inactive)
- GI50 (KM12): > 100 µM (inactive)
- GI50 (SK-OV-3): > 100 µM (inactive)
- GI50 (786-0): > 100 µM (inactive)
- GI50 (UACC-257): > 100 µM (inactive)
- GI50 (Hs-578T): > 100 µM (inactive)
- GI50 (SW-620): 72.3 µM (inactive)
- GI50 (NCI-H460): > 100 µM (inactive)
- GI50 (CCRF-CEM): 46.7 µM (inactive)
- GI50 (UO-31): > 100 µM (inactive)
- GI50 (A549): > 100 µM (inactive)
- GI50 (SK-MEL-28): > 100 µM (inactive)
- GI50 (COLO 205): 47.6 µM (inactive)
- GI50 (OVCAR-4): > 100 µM (inactive)
- GI50 (HCC 2998): > 100 µM (inactive)
- GI50 (RPMI-8226): 63 µM (inactive)
- GI50 (HCT-116): 97.5 µM (inactive)
- GI50 (SF-295): > 100 µM (inactive)
- GI50 (MDA-MB-435): 54.3 µM (inactive)
- GI50 (HOP-62): > 100 µM (inactive)
- GI50 (A498): 67.5 µM (inactive)
- GI50 (CAKI-1): > 100 µM (inactive)
- GI50 (UACC-62): 54.7 µM (inactive)
- GI50 (K562): 35 µM (inactive)
- GI50 (BT-549): > 100 µM (inactive)
- GI50 (MDA-MB-231): > 100 µM (inactive)
- GI50 (OVCAR-8): > 100 µM (inactive)
- GI50 (NCI/ADR-RES): 83.4 µM (inactive)
- GI50 (U-251): > 100 µM (inactive)
- GI50 (MOLT-4): 52.1 µM (inactive)
- GI50 (HOP-92): > 100 µM (inactive)
- GI50 (HL-60): 91 µM (inactive)
- GI50 (MCF7): 63 µM (inactive)
- GI50 (HCT-15): 73.1 µM
- GI50 (SNB-19): > 100 µM (inactive)
- GI50 (M14): > 100 µM (inactive)
- GI50 (NCI-H23): > 100 µM (inactive)
- GI50 (T47D): 24.9 µM (inactive)
- GI50 (OVCAR-3): 75.3 µM (inactive)
- GI50 (SF-268): > 100 µM (inactive)
- GI50 (Malme-3M): > 100 µM (inactive)
- GI50 (MDA-N): 45.8 µM (inactive)
- GI50 (OVCAR-5): > 100 µM (inactive)
- GI50 (HT-29): > 100 µM (inactive)
- GI50 (RXF 393): 63.1 µM (inactive)
- GI50 (TK-10): > 100 µM (inactive)
- GI50 (IGROV-1): > 100 µM (inactive)
- GI50 (EKVX): > 100 µM (inactive)
